B1: chanoclavine synthase (EasC) from Claviceps fusiformis (enzyme)
chain: MASQVSLTAQGSGLSAPLNGPEHLTSTTVENDPRLLDILSRFNREKIPERAVHARGAGAYGEFEVTHDVSDICDIDMLLGIGKKTPCAVRFSTTALERGSAESVRDVKGMAIKLFTGDGEWDWVCLNIPMFFIRDPSKFPDLVHAQRPDPATNLANPAAWWEFVCNNHESLHMAVFLFTDFGTMFDYRSMSGYVSHAYKWVMPDGTWKYVHWFLASDQGPNFEQGNQTREAAPNDSESATRDLYQSLERGECPSWTVKVQVIDPEDAPRLAFNILDVSKHWNLGNYPPDIPVIPERCVGKLTLKKGPENYFEEIEKLAFSPSHLVHGVEPSEDPMLQARLFAYPDAQEHRLGPQFSDMAAKRTGHAANDAPKTKKPAVPLQKQSREHAEWVSQVTSSSWSQPNETDYKFPRELWAALPRLRGEEFQNRLVVNMAESVSQIPEDLRQKVYKTLALVAEDLASRVESLTEEMVVPEQRPRL

Experiments:
[1] = biological target: T1, chanoclavine synthase (EasC) from Claviceps fusiformis (EasCCf) (Claviceps fusiformis, UniProt A8C7R6); assay: PCC conversion assay by LC–MS; type: biochemical
T1 sequence (A8C7R6 1-479): B1 chain

cryo-EM structure = biological target: the molecule itself; assay: cryo-EM structure

Row | Molecule | IC50 [1] [µM] | stoichiometry N (cryo-EM structure)
1 | NO [NH2OH, hydroxylamine] | 720 | 
2 | B1 |  | 2

— publication PMC12003167 (Nature, 2025)
